# Reference: patent publication US20050137223A1, “Glucoimidazole and polyhydroxycyclohexenyl amine derivatives to treat gaucher disease” (Amicus Therapeutics, Inc., priority 2003, published 2005)
# Residue numbers refer to the chain shown, from its start. pIC50: −log10 of the molar value. Read-outs that look alike come from different tables or passages of the source.
# Tests used:
# [1] = shortly after the start of the treatment; cited from earlier work
# GCase [2] = target: T1, GCase (Homo sapiens, UniProt P04062); conditions: literature values (Ogawa et al.); read-out: IC50 against GCase; cited from earlier work
# T1 sequence (P04062 40-536): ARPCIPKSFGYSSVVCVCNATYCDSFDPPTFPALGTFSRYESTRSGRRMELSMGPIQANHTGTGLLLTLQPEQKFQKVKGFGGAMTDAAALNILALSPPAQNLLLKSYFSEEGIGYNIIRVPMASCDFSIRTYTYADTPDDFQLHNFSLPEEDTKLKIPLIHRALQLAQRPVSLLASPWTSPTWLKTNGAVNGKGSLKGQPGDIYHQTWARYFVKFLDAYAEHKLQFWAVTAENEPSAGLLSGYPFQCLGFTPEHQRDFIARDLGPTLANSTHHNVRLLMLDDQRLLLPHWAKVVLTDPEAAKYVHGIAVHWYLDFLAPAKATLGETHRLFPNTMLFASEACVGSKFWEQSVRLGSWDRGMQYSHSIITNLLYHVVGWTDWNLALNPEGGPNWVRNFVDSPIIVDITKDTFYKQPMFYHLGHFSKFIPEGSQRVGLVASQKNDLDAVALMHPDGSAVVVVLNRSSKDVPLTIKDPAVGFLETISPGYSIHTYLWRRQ
# GCase [3] = target: T1, GCase; experiment: Inhibitory activity against GCase (4-methylumbelliferyl β-glucoside substrate); type: biochemical; conditions: for IC50: human GCase, 3 mM 4-MU β-glucoside, pH 5.2, 37° C., 30 min; for increase of inhibitory potency relative to 2-PE-GIZ: phenylethyl group replaced with octyl or dimethylbutyl at the same position
# Method: Methods. […] The compounds were added to each reaction mixture individually at the final concentration indicated. After incubation with the diluted human GCase at 37° C. for 30 min, the reaction was stopped by addition of 0.2 M glycine buffer, pH 10.8, the released 4-methylumbelliferone was determined by a fluoremeter at excitation wavelength of 355 nm and emission wavelength at 460 nm, respectively. The relative enzyme activity was calculated as a percentage to those of reactions without inhibitors. IC50 was calculated using Prism sigmoid plot.
# [4] = target: T2, GCase in fibroblasts from Gaucher patients with N370S/N370S mutation (Homo sapiens, UniProt P04062, N409S); experiment: Chaperone activity for GCase in Gaucher patient fibroblasts (residual enzyme activity); type: cell-based; conditions: cultured with compound for 4 days
# T2 construct: endogenous in cells; host or cells: fibroblasts from Gaucher patients homozygous for N370S
# T2 sequence (P04062 40-536 N409S): T1 sequence (P04062 40-536) with N370S
# Method: Methods. Fibroblasts established from Gaucher patients with N370S/N370S mutation were cultured in DMEM medium supplemented with 10% fetal bovine serum and antibiotics at 37° C. under 5% CO2. The GIZ was added into the culture medium at the final concentrations for 4 days prior to the assay. After washing the cells with phosphate-buffered saline, the cells were harvested and homogenized in the presence of 0.25% (w/v) sodium taurocholate and 0.1% (v/v) Triton X-100 in McIlvaine buffer (pH 5.2, Reaction Buffer), and 10 μl of the lysate was used for the determination of residual enzyme activity. The activity of the GCase was determined with 3 mM 4-MU-β-Glc in the Reaction Buffer at 37° C. for 1 hr as conduritol B epoxide (CBE)-sensitive activity in parallel assays without or with pre-incubation with CBE at 1.25 mM for 30 min at room temperature. Protein concentrations in the cell lysates were determined using micro BCA protein assay kit from Pierce.
compound,measurement,setting,value
"CCCCN1C[C@H](O)[C@@H](O)[C@H](O)[C@H]1CO [N-butyl 1-deoxynojirimycin (NB-DNJ), N-butyl 1-deoxynojirimycin]",patients with diarrhea (most frequent adverse effect),[1],79%
CCCCCCCCN[C@@H]1C=C(CO)[C@@H](O)[C@H](O)[C@H]1O [N-octyl valienamine],pIC50,GCase [2],~6.52
"OC[C@@H]1[C@@H](O)[C@H](O)[C@@H](O)c2nc(CCc3ccccc3)cn21 [2-Phenylethyl GIZ, (5R,6R,7S,8S)-5-hydroxymethyl-2-phenethyl-5,6,7,8-tetrahydroimidazo[1,2-a]pyridine-6,7,8-triol]",IC50,GCase [3],1.1 nM
"CC(C)(C)CCc1cn2c(n1)[C@H](O)[C@@H](O)[C@H](O)[C@H]2CO [2-Dimethylbutyl GIZ, (5R,6R,7S,8S)-5-Hydroxymethyl-2-(3,3-dimethylbutyl)-5,6,7,8-tetrahydroimidazo[1,2-a]pyridine-6,7,8-triol]",IC50,GCase [3],0.03 nM
same,increase of inhibitory potency relative to 2-PE-GIZ,GCase [3],~37 fold
"CCCCCCCCc1cn2c(n1)[C@H](O)[C@@H](O)[C@H](O)[C@H]2CO [2-Octyl GIZ, (5R,6R,7S,8S)-5-Hydroxymethyl-2-n-octyl-5,6,7,8-tetrahydroimidazo[1,2-a]pyridine-6,7,8-triol]",IC50,GCase [3],0.07 nM
same,increase of inhibitory potency relative to 2-PE-GIZ,GCase [3],approximately 15 fold
"OC[C@@H]1[C@@H](O)[C@H](O)[C@@H](O)c2nccn21 [GIZ, (5R,6R,7S,8S)-5-hydroxymethyl-5,6,7,8-tetrahydroimidazo[1,2-a]pyridine-6,7,8-triol]",IC50,GCase [3],87 nM
same,increase of residual enzyme activity in patient cells,[4],approximately 2 fold
same,optimal concentration for the maximum enhancement,[4],~300 µM
